Key:
BV-2 = assay: Antiinflammatory activity in LPS induced mouse BV-2 cells decrease in release of […] at 5 uM by […] (reference value: 100%); type: functional
[1] = target: T1, Amyloid-beta precursor protein (Homo sapiens, UniProt P05067); assay: Inhibition of amyloid beta (1 to 42) (unknown origin) self aggregation at 50 uM relative to control
[2] = Antioxidant activity by measuring oxygen radical absorbance capacity-fluorescein values; type: functional
[3] = target: T1, Amyloid-beta precursor protein; assay: Inhibition of amyloid beta (1 to 42) (unknown origin) self aggregation assessed as disaggregation relative to control; parameters: concentration or dose not given beside the values; settings: concentration not given here
[4] = target: T1, Amyloid-beta precursor protein; assay: Inhibition of amyloid beta (1 to 42) (unknown origin) self aggregation
[5] = target: T1, Amyloid-beta precursor protein; assay: Inhibition of amyloid beta (1 to 42) (unknown origin) self aggregation assessed as disaggregation

T1 sequence (P05067 whole entry): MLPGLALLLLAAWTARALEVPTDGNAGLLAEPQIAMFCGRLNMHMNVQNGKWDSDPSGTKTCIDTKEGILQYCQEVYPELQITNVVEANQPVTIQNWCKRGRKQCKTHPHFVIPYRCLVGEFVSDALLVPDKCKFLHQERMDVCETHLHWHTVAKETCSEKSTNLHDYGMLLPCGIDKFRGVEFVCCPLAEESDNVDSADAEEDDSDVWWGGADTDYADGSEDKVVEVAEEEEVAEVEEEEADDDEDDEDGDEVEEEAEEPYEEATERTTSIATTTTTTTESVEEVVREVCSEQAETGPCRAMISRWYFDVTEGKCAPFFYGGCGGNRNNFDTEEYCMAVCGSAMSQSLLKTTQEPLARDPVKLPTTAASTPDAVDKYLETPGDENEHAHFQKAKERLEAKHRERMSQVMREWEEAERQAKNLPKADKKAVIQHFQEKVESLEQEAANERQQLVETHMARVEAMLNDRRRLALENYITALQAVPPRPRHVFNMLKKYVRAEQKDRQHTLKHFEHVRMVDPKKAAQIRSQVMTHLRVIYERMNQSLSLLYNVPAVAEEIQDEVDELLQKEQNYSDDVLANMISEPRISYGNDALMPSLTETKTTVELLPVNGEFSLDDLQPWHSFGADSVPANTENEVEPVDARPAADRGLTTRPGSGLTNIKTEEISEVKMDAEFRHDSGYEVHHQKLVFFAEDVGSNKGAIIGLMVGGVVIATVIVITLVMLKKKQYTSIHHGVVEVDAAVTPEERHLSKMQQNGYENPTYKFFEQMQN

inhibition [1] [%] | inhibition [3] [%] | IC50 [4] [µM] | IC50 [5] [µM] | SMILES | Nitric oxide release (% of LPS control) (BV-2) [%] | Activity index [2]
50.6 | 45.9 | – | – | O=c1ccoc(/C=C/c2ccc3ccccc3c2)c1O | 102.37 | 1.38
7.59 | 8.21 | – | – | O=c1ccoc(/C=C/c2ccccc2)c1O | 78.21 | 0.52
30.4 | 26.9 | – | – | O=c1ccoc(/C=C/c2ccc(Cl)cc2)c1O | 97.73 | 1.02
23.2 | 28.2 | – | – | O=c1ccoc(/C=C/c2cccc(Cl)c2)c1O | 88.17 | 1.21
24.2 | 18.5 | – | – | O=c1ccoc(/C=C/c2cccc(F)c2)c1O | 71.55 | 1.55
28.6 | 15.1 | – | – | Cc1ccc(/C=C/c2occc(=O)c2O)cc1 | 85.2 | 0.32
34 | 39 | – | – | COc1ccc(/C=C/c2occc(=O)c2O)cc1 | 91.49 | 0.75
36.1 | 32.2 | – | – | O=c1ccoc(/C=C/c2ccc(O)c(F)c2)c1O | 86.66 | 2.78
36.7 | 29.6 | – | – | O=c1ccoc(/C=C/c2ccc(O)cc2)c1O | 86.81 | 2.79
52 | 46.7 | – | – | O=c1ccoc(/C=C/c2ccc(-c3ccccc3)cc2)c1O | 87.38 | 0.4

More lines, now with the values behind:

SMILES | inhibition [1] [%] | inhibition [3] [%] | IC50 [4] [µM] | IC50 [5] [µM] | Nitric oxide release (% of LPS control) (BV-2) [%] | Activity index [2]
Oc1ccc(/C=C/c2cc(O)cc(O)c2)cc1 [RESVERATROL] | 73.2 | – | – | – | 86.97 | –
O=c1ccocc1O | – | – | – | – | 93.85 | 1.75
COc1ccccc1/C=C/c1occc(=O)c1O | 23.5 | 30.9 | – | – | 77.3 | 0.79
O=c1ccoc(/C=C/c2ccc(N3CCOCC3)cc2)c1O | 50.4 | 65.8 | 49.4 | 23.9 | 100.11 | 2.25
O=c1ccoc(/C=C/c2ccc(F)cc2)c1O | 8.6 | 14.8 | – | – | 88.36 | 1.13
COc1cccc(/C=C/c2occc(=O)c2O)c1 | 13.6 | 42.8 | – | – | 72.79 | 0.8
CC(C)(C)c1ccc(/C=C/c2occc(=O)c2O)cc1 | 37.7 | 31.6 | – | – | 94.03 | 0.07
COc1cc(/C=C/c2occc(=O)c2O)ccc1O | 48.5 | 42.9 | – | – | 90.67 | 1.96
Cc1c(C)c2c(c(C)c1O)CCC(C)(C(=O)O)O2 (stereo not drawn) | – | – | – | – | – | 1
COc1ccc(/C=C/c2occc(=O)c2O)cc1OC | 10.4 | 20.6 | – | – | 97.14 | 1.73
O=c1ccoc(/C=C/c2ccc(N3CCCCC3)cc2)c1O | 59.6 | 60.5 | 33.4 | 27.2 | 100.49 | 2.21
CN1CCN(c2ccc(/C=C/c3occc(=O)c3O)cc2)CC1 | 30.6 | 56.1 | – | – | 96.04 | 2.33
COC(=O)c1ccc(/C=C/c2occc(=O)c2O)cc1 | 33.7 | 27.6 | – | – | 71.82 | 0.25
CN(C)c1ccc(/C=C/c2occc(=O)c2O)cc1 | 53.7 | 47.6 | 47.2 | 42.4 | 92.3 | 0.87
O=c1ccoc(/C=C/c2ccc(F)c(O)c2)c1O | 23.8 | 24 | – | – | 93.87 | 3.19
COc1ccc(/C=C/c2occc(=O)c2O)cc1O | 57.4 | 48.9 | 43.7 | 43.2 | 90.08 | 1.62
O=c1ccoc(/C=C/c2ccccc2Cl)c1O | 27.7 | 19.2 | – | – | 54.58 | 1.13
O=c1ccoc(/C=C/c2ccc(C(F)(F)F)cc2)c1O | 30.5 | 25.9 | – | – | 88.82 | 0.12
O=c1ccoc(/C=C/c2ccc([N+](=O)[O-])cc2)c1O | 56.8 | 62.8 | 38.2 | 26.3 | 88.99 | 0.79
O=c1ccoc(/C=C/c2ccc(N3CCSCC3)cc2)c1O | 53.9 | 62.8 | 46.8 | 28.5 | 98.13 | 1.48
N#Cc1ccc(/C=C/c2occc(=O)c2O)cc1 | 16.8 | 17 | – | – | 88 | 1.9
O=c1ccoc(/C=C/c2ccccc2F)c1O | 19.9 | 12.6 | – | – | 56.97 | 1.49

— ChEMBL document CHEMBL5325414, “Novel neuroprotective pyromeconic acid derivatives with concurrent anti-Aβ deposition, anti-inflammatory, and anti-oxidation properties for treatment of Alzheimer's disease” (Eur J Med Chem, 2023)
